Holding throughout (format): in vivo
The subject of one data set is ddY male mice. In words: Test Method 4: Acute Toxicity-Minimum Lethal Dose (MLD). As to conditions: oral, observation over 7 days. The text has this:
ddY Male mice each weighing from 20 to 22 g (4 weeks of age and 5 mice in one group) were fasted overnight, followed by oral administration of the test compounds which had been suspended in 1% CMC aqueous solution. Observation was made as to the death of the animals over 7 days to thereby determine the minimum lethal doses (MLD).

The subject of a further data set is ethanol induced ulcer. In words: Test Method 2: Effect on Ethanol Induced Ulcer. The conditions noted are these: Rattus norvegicus; SD male rats, oral, 30 minutes before oral ethanol (99.5%, 1 ml); stomachs removed one hour later. As for the experimental part: 1. Test Procedures The method of Robert (Gastroenterology, 77, 433 (1979)) was followed. SD male rats each weighing from 180 to 200 g (8 weeks of age and 6 to 8 rats in one group) were fasted for 24 hours, followed by oral administration of the test compounds which had been suspended in 1% CMC aqueous solution. After lapse of 30 minutes, 1 ml of ethanol (99.5%) was orally administered. One hour later, the animals were killed under etherization to remove the stomachs. Each of the stomachs was injected with 12 ml of 1% formalin aqueous solution and then immersed in 1% formalin aqueous solution for 15 minutes. The ulcer factor and ulcer inhibition rate were determined in a manner similar to Test Method 1. The ED50 values were obtained from the doses-ulcer inhibition rates curve.

The test system of the next data set is stress induced ulcer. In words: Test Method 1: Effect on Stress Induced Ulcer. As to conditions: Rattus norvegicus; SD male rats, oral, 15 minutes before restraint and water immersion (24° C., 18 hours); from doses-ulcer inhibition rates curve. As for the experimental part:
1. Test Procedures The method of Takagi et al (Jap. J. Pharmacol., 18, 9 (1968)) was followed. SD male rats each weighing from 180 to 200 g (8 weeks of age and 6 to 8 rats in one group) were fasted for 24 hours, followed by oral administration of the above test compounds which had been suspended in 1% CMC aqueous solution. 15 minutes later, the animals were put into a stress cage which was then immersed in a water tank at 24° C. at the depth of the […] of the animals. After being immersed for 18 hours, the animals were killed under etherization to excise the stomachs. Each of the stomachs was injected with 12 ml of 1% formalin aqueous solution and then immersed in 1% formalin aqueous solution for 15 minutes. The stomach was incised along its upper curvature and measured by an anatomic microscopy for the major axis (mm) of each ulcer that had developed on the gastric mucous membrane. The total major axis (mm) was taken as the ulcer factor. The ulcer inhibition rate was obtained from the following equation. The ED50 values were obtained from the doses-ulcer inhibition rates curve. [formula] where l is the ulcer factor of a group without the test compounds administered, and m is the ulcer factor of a group having such compounds administered.

For data set [1], the system named is indomethacin induced ulcer. The experiment in a line: Test Method 3: Effect on Indomethacin Induced Ulcer. The conditions noted are these: Rattus norvegicus; SD male rats, oral, 15 minutes before s.c. indomethacin (30 mg/kg); stomachs removed after 5 hours. As to the method:
The method of Okabe et al (Jap. J. Pharmacol., 29, 670 (1979)) was followed.
SD male rats each weighing from 180 to 200 g (8 weeks of age and 6 to 8 in one group) were fasted for 24 hours, followed by oral administration of the test compounds which had been suspended in 1% CMC aqueous solution, and 15 minutes afterwards, by subcutaneous administration of indomethacin (30 mg/kg of weight) which had been dissolved in 3% sodium bicarbonate aqueous solution. After lapse of 5 hours, the animals were killed under etherization to take out the stomachs. Each of the stomachs was injected with 12 ml of 1% formalin aqueous solution containing 0.1% pontamine sky blue and then immersed in 1% formalin aqueous solution for 15 minutes. The ulcer factor and ulcer inhibition rate were determined in a manner similar to Test Method 1. The ED50 values were obtained from the dosesulcer inhibition rates curve.

Structures are written as SMILES. Bounds are passed on as bounds.

Take `N=C(N)NCc1ccc(C(=O)Nc2ccccc2)cc1` [Compound A, N-phenyl-4-guanidinomethylbenzamide]: the “MLD, acute toxicity test (minimum lethal dose)” value in the data set on ddY male mice is listed as over 3000 mg/kg. For the same compound, the 50% effective dose (ED50) amounted to 35 mg/kg with ethanol induced ulcer, 34 mg/kg in the data set with stress induced ulcer and 58 mg/kg in data set [1].

On to `Cl.N=C(N)NC[C@H]1CC[C@H](C(=O)Nc2ccccc2)CC1` [Compound B, N-(phenyl)-trans-4-guanidinomethylcyclohexanecarboxamide hydrochloride], for which the “MLD, acute toxicity test (minimum lethal dose)” value in the data set with ddY male mice is under 1000 mg/kg. Further, the ED50 in the data set with ethanol induced ulcer stood at 220 mg/kg; with stress induced ulcer, 143 mg/kg; in data set [1] it was 73 mg/kg.

The values above are taken from patent US4732916A, “Novel guanidinomethylbenzoic acid derivatives” (Kabushiki Kaisha Med-Creat, priority 1985, dated 1988).
